Reference: patent publication US12171229B2, “Heteroaryl-triazole and heteroaryl-tetrazole compounds as pesticides” (BAYER AKTIENGESELLSCHAFT, priority 2018, dated 2024)

Legend:
[1] = test system: Phaedon cochleariae; test: Phaedon cochleariae spray test; format: in vivo; details: foliar, 168 h, after 7 days, larvae on Chinese cabbage leaf disks
Method: Phaedon Cochleariae—Spray Test
To produce a suitable preparation of active compound, 1 part by weight of active compound is mixed with the stated amount of solvents and is diluted with water, containing an emulsifier concentration of 1000 ppm, to the desired concentration. Further test concentrations are prepared by dilution with emulsifier containing water.
Chinese cabbage (Brassica pekinensis) leaf disks are sprayed with a preparation of the active ingredient of the desired concentration. Once dry, the leaf disks are infested with mustard beetle larvae (Phaedon cochleariae).
After 7 days mortality in % is determined. 100% means all beetle larvae have been killed and 0% means none of the beetle larvae have been killed.

[2] = test system: Blattella germanica strain PAULINIA; test: whole plant or invertebrate; format: in vivo; details: read-out: efficacy (mortality)
Method: Blattella Germanica Test (BLTTGE Surface Treatment & Contact Assay)
Solvent: Aceton+2000 ppm rapeseed oil methyl ester (RME)
In order to produce a sufficient, active ingredient containing solution it is necessary to solve the test compound in the solvent-mix (acetone at 2 mg/ml/RME 2000 ppm). This solution is pipetted onto a glazed tile and after evaporation of the acetone, adult animals of the species Blattella germanica strain PAULINIA are placed onto the dried surface. The exposure time is 30 minutes.
Mortality in percent (%) is determined 24 hours after contact of the insects to the treated surface. 100% mortality means that all tested insects are dead, whereas 0% means that no insect died.

## CC(c1ncnn1-c1ccc(C#N)cn1)N(CC1CC1)C(=O)c1cc(Cl)cc(C(F)(F)F)c1 (centres unmarked) [Example I-007]
[1]
  mortality at 500 g/ha: 100%
[2]
  mortality at 20 mg/m2: 80 to 100%
